Each structure is given as a SMILES string. Where two headings read alike, the source gives them in different places. Bounds are passed on as bounds.

The values below come from patent US20230031406A1, “COMPOUNDS AND COMPOSITIONS FOR TREATING CONDITIONS ASSOCIATED WITH NLRP ACTIVITY” (Novartis AG, priority 2018, published 2023).

The assay deals with PMA-differentiated THP-1 cells. Description: IL-1β production in PMA-differentiated THP-1 cells stimulated with gramicidin (hTHP-1 assay containing 2% fetal bovine serum; Procedures 1 and 2). Type of assay: cell-based, human. The settings on record: 2% fetal bovine serum. An outline of the steps: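 Secreted IL-1β, read by HTRF, after gramicidin challenge (5 μM, 2 h) of THP-1 cells differentiated with PMA (20 ng/ml, 16-18 h) and plated at 50,000 cells/well in 2% FBS medium. Compounds, 0.0017-100 μM final with 0.37% DMSO, were added 1 h before stimulation.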

Where [1] appears, read: Homo sapiens, THP-1, Table B2, numeric bounds, read-out: hTHP-1 IC50.
[2] abbreviates: Homo sapiens, THP-1, Table B2, class symbols, read-out: hTHP-1 IC50.
Setting [3] is: Table B1, class symbols, read-out: Average IC50 of compounds in hTHP-1 assay: hTHP-1 IC50.
Where [4] appears, read: Homo sapiens, THP-1, Table B1, class symbols, read-out: Average IC50 of compounds in hTHP-1 assay: hTHP-1 IC50.
Where [5] appears, read: Table B2, class symbols, read-out: hTHP-1 IC50.

For the compound `CC(C)n1cc(S(N)(=O)=NC(=O)Nc2c3c(nc4c2CCC4(C)C)CCC3)c(CO)n1` (single isomer, unassigned) [Compound 653b, (S) or (R)-N′-((3,3-dimethyl-1,2,3,5,6,7-hexahydrodicyclopenta [b,e]pyridin-8-yl)carbamoyl)-3-(hydroxymethyl)-1-isopropyl-1H-pyrazole-4-sulfonimidamide], the concentration for half-maximal inhibition (IC50) under setting [1] was greater than 30 µM.

For the compound `CCn1ccc([S@@](N)(=O)=NC(=O)Nc2c(C)c(C(F)(F)F)nc3c2CCC3)n1` [Compound 731a], under setting [2], the 50% inhibitory concentration (IC50) was in the range of 5 to 30 µM.

For `CC(C)(O)c1ncc(S(N)(=O)=NC(=O)Nc2c3c(nc4c2CCC4C(=O)O)CCC3)s1` (stereo not shown) [Compound 703, 8-(3-(Amino(2-(2-hydroxypropan-2-yl)thiazol-5-yl)(oxo)-λ^6-sulfanylidene)ureido)-1,2,3,5,6,7-hexahydrodicyclopenta[b,e] pyridine-3-carboxylic acid], the IC50 under setting [2] fell in the range of 5 to 30 µM.

Regarding `Cc1c(C2CCC2)nc2c(c1NC(=O)N=S(N)(=O)c1cnc(C(C)(C)O)s1)CCC2` (stereo not shown) [Compound 649, N′-((2-cyclobutyl-3-methyl-6,7-dihydo-5H-cyclopenta[b]pyridin-4-yl)carbamoyl)-2-(2-hydroxypropan-2-yl)thiazole-5-sulfonimidamide], the IC50 under setting [2] is 5 to 30 µM.

For `CNCc1nc(C(C)(C)O)sc1S(N)(=O)=NC(=O)Nc1c2c(nc3c1CCC3(C)C)CCC2` (stereo not shown) [Compound 665, N-((3,3-dimethyl-1,2,3,5,6,7-hexahydrodicyclopenta[b,e]pyridin-8-yl)carbamoyl)-2-(2-hydroxypropan-2-yl)-4-((methylamino)methyl)thiazole-5-sulfonimidamide], the IC50 under setting [1] was greater than 30 µM.

For the compound `CC(C)n1ccc(S(N)(=O)=NC(=O)Nc2c3c(nc4c2CCC4(C)C)CCC3)n1` (single isomer, unassigned) [Compound 126b, (S) or (R)-N′-((3,3-dimethyl-1,2,3,5,6,7-hexahydro-dicyclopenta[b,e]pyridin-8-yl)carbamoyl)-1-isopropyl-1H-pyrazole-3-sulfonimidamide], under setting [3], the IC50 fell in the range of 5 to 30 µM.

As for `CC1CCc2c1nc1c(c2NC(=O)N=S(N)(=O)c2cc(C(C)(C)O)cs2)CCC1C` (single isomer, unassigned) [Compound 131e, (S,S,S) or (S,R,S) and (S,S,R) or (S,R,R)-N′-((3,5-dimethyl-1,2,3,5,6,7-hexahydro-dicyclopenta[b,e]pyridin-8-yl)carbamoyl)-4-(2-hydroxypropan-2-yl)thio-phene-2-sulfonimidamide], the IC50 under setting [3] was 5 to 30 µM.

For the compound `CC1(C)CCc2c1nc1c(c2NC(=O)N=S(N)(=O)c2cnn3c2OCCC3)CCC1` (single isomer, unassigned) [Compound 304b, (R) or (S)-N′-((3,3-dimethyl-1,2,3,5,6,7-hexahydrodicyclopenta [b,e]pyridin-8-yl)carbamoyl)-6,7-dihydro-5H-pyrazolo[5,1-b][1,3]oxazine-3-sulfonimidamide], the half-inhibitory concentration (IC50) under setting [2] fell in the range of 1 to 5 µM.

Take `Cc1c(C2CC2)nc2c(c1NC(=O)N=S(N)(=O)c1nc(C(C)(C)O)cs1)CCC2` (stereo not shown) [Compound 626, N′-((2-cyclopropyl-3-methyl-6,7-dihydro-5H-cyclopenta[b]pyridin-4-yl)carbamoyl)-4-(2-hydroxypropan-2-yl)thiazole-2-sulfonimidamide]: under setting [2], the IC50 was 0.04 to 0.2 µM.

For `Cc1cn(C(C)C)nc1S(N)(=O)=NC(=O)Nc1c2c(nc3c1CCC3)CCC2` (single isomer, unassigned) [Compound 687b, (R) or (S)-N′-((1,2,3,5,6,7-hexahydrodicyclopenta [b,e]pyridin-8-yl)carbamoyl)-1-isopropyl-4-methyl-1H-pyrazole-3-sulfonimidamide], the IC50 under setting [2] fell in the range of 5 to 30 µM.

With `CC1(C)Cc2nc3c(c(NC(=O)N=S(N)(=O)c4cnc(C(C)(C)O)s4)c2C1)CCC3` (stereo not shown) [Compound 147, N′-((2,2-dimethyl-1,2,3,5,6,7-hexahydrodicyclopenta[b,e]pyridin-8-yl)carbamoyl)-2-(2-hydroxypropan-2-yl)thiazole-5-sulfonimidamide], the concentration for half-maximal inhibition (IC50) under setting [4] lay in the range of 5 to 30 µM.

Take `CN(C)Cc1ccc(S(N)(=O)=NC(=O)Nc2c3c(nc4c2CCC4(C)C)CCC3)cc1` (single isomer, unassigned) [Compound 125b, (R) or (S)-N′-((3,3-dimethyl-1,2,3,5,6,7-hexahydro-dicyclopenta[b,e]pyridin-8-yl)carbamoyl)-4-((dimethylamino)meth-yl)benzene-sulfonimidamide]: the 50% inhibitory concentration (IC50) under setting [4] lay within 1 to 5 µM.

Consider `CC(C)(O)c1csc(S(N)(=O)=NC(=O)Nc2c3c(nc(C4CC4)c2C2CC2)CCC3)c1` (single isomer, unassigned) [Compound 670b, (R) or (S)-N′-((2,3-dicyclopropyl-6,7-dihydro-5H-cyclopenta[b]pyridin-4-yl)carbamoyl)-4-(2-hydroxypropan-2-yl)thiophene-2-sulfonimidamide], for which, under setting [5], the IC50 lay within 0.04 to 0.2 µM.

In the case of `CCn1ccc([S@@](N)(=O)=NC(=O)Nc2c3c(nc(C4CC4)c2C2CC2)CCC3)n1` [Compound 726a], under setting [1], the IC50 was greater than 30 µM.

Turning to `Cc1c(C2CCC2)nc2c(c1NC(=O)N=S(N)(=O)c1cc(C(C)(C)O)cs1)CCC2` (single isomer, unassigned) [Compound 658b, (R) or (S)-N′-((2-cyclobutyl-3-methyl-6,7-dihydro-5H-cyclopenta[b]pyridin-4-yl)carbamoyl)-4-(2-hydroxypropan-2-yl)thiophene-2-sulfonimidamide], under setting [2], the 50% inhibitory concentration (IC50) was in the range of 1 to 5 µM.

Regarding `CCc1c(C(F)(F)F)nc2c(c1NC(=O)N=S(N)(=O)c1cc(C(C)(C)O)cs1)CCC2` (single isomer, unassigned) [Compound 698b, (R) or (S)-N′-((3-ethyl-2-(trifluoromethyl)-6,7-dihydro-5H-cyclopenta[b]pyridin-4-yl)carbamoyl)-4-(2-hydroxypropan-2-yl)thiophene-2-sulfonimidamide], the IC50 under setting [5] was in the range of 0.2 to 1 µM.

For the compound `NS(=O)(=NC(=O)Nc1c2c(nc(C(F)(F)F)c1C1CC1)CCC2)c1nn(C(F)F)cc1F` (single isomer, unassigned) [Example 776, (S) or (R)-N′-((3-cyclopropyl-2-(trifluoromethyl)-6,7-dihydro-5H-cyclopenta[b]pyridin-4-yl)carbamoyl)-1-(difluoromethyl)-4-fluoro-1H-pyrazole-3-sulfonimidamide], the IC50 (Table B4, class symbols, read-out: hTHP-1 IC50) fell in the range of 5 to 30 µM.

With `CC(C)c1nc(CO)c(S(N)(=O)=NC(=O)Nc2c3c(nc4c2CCC4(C)C)CCC3)s1` (single isomer, unassigned) [Compound 680b, (R) or (S)-N′-((3,3-dimethyl-1,2,3,5,6,7-hexahydrodicyclopenta [b,e]pyridin-8-yl)carbamoyl)-4-(hydroxymethyl)-2-isopropylthiazole-5-sulfonimidamide], the IC50 under setting [5] fell in the range of 1 to 5 µM.

Turning to `CCc1ncc(S(N)(=O)=NC(=O)Nc2c3c(nc4c2CC[C@H]4C)CCC3)s1` (single isomer, unassigned) [Example 674, (R) or (S)-2-ethyl-N′-(((R)-3-methyl-1,2,3,5,6,7-hexahydrodicyclopenta[b,e]pyridin-8-yl)carbamoyl) thiazole-5-sulfonimidamide], where the note is “Table B3, hTHP-1 assay, class symbols, read-out: IC50”, the IC50 lay within 0.2 to 1 µM.

With `COC(C)(C)c1nc(CO)c(S(N)(=O)=NC(=O)Nc2c3c(nc4c2CCC4(C)C)CCC3)s1` (single isomer, unassigned) [Compound 648a, (R) or (S)-N′-((3,3-dimethyl-1,2,3,5,6,7-hexahydrodicyclopenta [b,e]pyridin-8-yl)carbamoyl)-4-(hydroxymethyl)-2-(2-methoxypropan-2-yl)thiazole-5-sulfonimidamide], the half-maximal inhibitory concentration (IC50) under setting [2] is 0.2 to 1 µM.

Turning to `CC(C)(O)c1csc(S(N)(=O)=NC(=O)Nc2c3c(nc(C4CC4)c2C2CC2)CCC3)c1` (single isomer, unassigned) [Compound 670a, (S) or (R)-N′-((2,3-dicyclopropyl-6,7-dihydro-5H-cyclopenta[b]pyridin-4-yl)carbamoyl)-4-(2-hydroxypropan-2-yl)thiophene-2-sulfonimidamide], under setting [5], the IC50 was in the range of 5 to 30 µM.

With `CC(C)c1ncc(F)c(C(C)C)c1NC(=O)N=S(N)(=O)c1sc(C(C)(C)O)cc1F` (stereo not shown) [Compound 106, 3-Fluoro-N′-((5-fluoro-2,4-diisopropylpyridin-3-yl)carbamoyl)-5-(2-hydroxypropan-2-yl)thiophene-2-sulfonimidamide], the IC50 under setting [4] fell in the range of 0.04 to 0.2 µM.

As for `CCc1csc(S(N)(=O)=NC(=O)Nc2c3c(nc4c2CC[C@H]4C)CCC3)c1` (single isomer, unassigned) [Compound 721a, (S) or (R)-4-Ethyl-N′-(((R)-3-methyl-1,2,3,5,6,7-hexahydrodicyclopenta[b, e]pyridin-8-yl)carbamoylithiophene-2-sulfonimidamide], the IC50 under setting [5] was in the range of 5 to 30 µM.

As to `CC(C)(O)c1ncc(S(N)(=O)=NC(=O)Nc2cc(C(F)F)nc3c2CCC3)s1` (stereo not shown) [Example 614, N′-((2-(difluoromethyl)-6,7-dihydro-5H-cyclopenta[b]pyridin-4-yl)carbamoyl)-2-(2-hydroxypropan-2-yl)thiazole-5-sulfonimidamide], where the note is “Homo sapiens, THP-1, Table B3, hTHP-1 assay, numeric values, read-out: IC50”, the IC50 was greater than 30 µM.

With `Cc1nc2c(c(NC(=O)N=S(N)(=O)c3sc(C(O)(CO)CO)nc3CO)c1C(F)(F)F)CCC2` (stereo not shown) [Example 587, 4-(Hydroxymethyl)-N′-((2-methyl-3-(trifluoromethyl)-6,7-dihydro-5H-cyclopenta[b]pyridin-4-yl)calbamoyl)-2-(1,2,3-trihydroxypropan-2-yl)thiazole-5-sulfonimidamide], the IC50 (Homo sapiens, THP-1, Table B3, hTHP-1 assay, class symbols, read-out: IC50) was 5 to 30 µM.
